From patent US8623859B2, “Bradykinin B1 antagonists” (Evotec AG, priority 2008, dated 2014)
Structures can show the parent of a compound that is named as a salt.

target: T1, human B1 (Homo sapiens, UniProt P46663); experiment: Calcium flux assay for Bradykinin B1 antagonist, CHO-K1 cell line expressing human B1; type: cell-based; details: CHO-K1 cells expressing human B1, agonist Lys-(Des-Arg)-Bradykinin, read-out: Potency (IC50 value against human B1)
T1 construct: host or cells: CHO-K1
T1 sequence (P46663 1-353): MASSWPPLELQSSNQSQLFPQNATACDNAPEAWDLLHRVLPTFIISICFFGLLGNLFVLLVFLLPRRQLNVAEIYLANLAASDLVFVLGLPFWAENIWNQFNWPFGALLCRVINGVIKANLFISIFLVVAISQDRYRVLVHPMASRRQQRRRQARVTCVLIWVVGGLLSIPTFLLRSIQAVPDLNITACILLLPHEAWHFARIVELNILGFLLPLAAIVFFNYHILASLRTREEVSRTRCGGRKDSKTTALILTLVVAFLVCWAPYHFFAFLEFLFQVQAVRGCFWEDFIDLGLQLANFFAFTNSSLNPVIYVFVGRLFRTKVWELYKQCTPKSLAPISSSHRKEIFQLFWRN
How it was run: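 Inhibition of B1 agonist-evoked intracellular Ca2+ rise was followed by continuous fluorescence at 538 nm, with integrated, background-normalized signals plotted versus log compound concentration. Test compounds (eight 10-fold dilutions, triplicate, 1% DMSO final) were added 30 min at 25° C beforehand to Fluo-4AM-loaded human B1 CHO-K1 cells in pH 7.4 assay buffer.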

IC50 [nM] | Structure (SMILES)
10 to 100 | COc1cc(C)c(S(=O)(=O)N(C)Cc2nc(C(=O)N3CCN(C4CCN(C)CC4)CC3)co2)c(C)c1 [Ex 66, 4-Methoxy-N,2,6-trimethyl-N-[(4-{[4-(1-methylpiperidin-4-yl)piperazin-1-yl]carbonyl}-1,3-oxazol-2-yl)methyl]benzenesulfonamide]
< 10 | COc1cc(C)c(S(=O)(=O)N(C)Cc2nnc(C(=O)N3CCN(Cc4ccc(Cl)nc4)CC3)o2)c(C)c1 [Ex 297, N-{[5-({4-[(6-Chloropyridin-3-yl)methyl]piperazin-1-yl}carbonyl)-1,3,4-oxadiazol-2-yl]methyl}-4-methoxy-N,2,6-trimethylbenzenesulfonamide]
< 10 | COc1cc(C)c(S(=O)(=O)N(C)Cc2nc(C(=O)N(C)Cc3ccc(CN4CCC(OC)CC4)cc3)co2)c(C)c1 [Ex 167, 2-({[(4-Methoxy-2,6-dimethylphenyl)sulfonyl](methyl)amino}methyl)-N-{4-[(4-methoxypiperidin-1-yl)methyl]benzyl}-N-methyl-1,3-oxazole-4-carboxamide]
10 to 100 | COc1cc(C)c(S(=O)(=O)N(C)Cc2nc(C(=O)N(C)Cc3nc(CN4CCCC4)cs3)co2)c(C)c1 [Ex 202, 2-({[(4-Methoxy-2,6-dimethylphenyl)sulfonyl](methyl)amino}methyl)-N-methyl-N-{[4-(pyrrolidin-1-ylmethyl)-1,3-thiazol-2-yl]methyl}-1,3-oxazole-4-carboxamide trifluoroacetate]
10 to 100 | COc1cc(C)c(S(=O)(=O)N(C)Cc2nc(C(=O)N(C)Cc3ccc(CN4CCCC(OC)C4)cc3)co2)c(C)c1 (centres unmarked) [Ex 168, 2-({[(4-Methoxy-2,6-dimethylphenyl)sulfonyl](methyl)amino}methyl)-N-{4-[(3-methoxypiperidin-1-yl)methyl]benzyl}-N-methyl-1,3-oxazole-4-carboxamide]
100 to 1000 | COc1cc(C)c(S(=O)(=O)N(C)Cc2cc(C(=O)N3CCCC(c4ccc(CN5CCCC5)cc4)C3)co2)c(C)c1 (centres unmarked) [Ex 95, 4-Methoxy-N,2,6-trimethyl-N-{[4-({3-[4-(pyrrolidin-1-ylmethyl)phenyl]piperidin-1-yl}carbonyl)furan-2-yl]methyl}benzenesulfonamide trifluoroacetamide]
100 to 1000 | COc1cc(C)c(S(=O)(=O)N(C)Cc2nnc(C(=O)N(C)Cc3ccc(CN4CCC(OC)C4)cc3)o2)c(C)c1 (centres unmarked) [Ex 282, 5-({[(4-Methoxy-2,6-dimethylphenyl)sulfonyl](methyl)amino}methyl)-N-{4-[(3-methoxypyrrolidin-1-yl)methyl]benzyl}-N-methyl-1,3,4-oxadiazole-2-carboxamide]
10 to 100 | COc1cc(C)c(S(=O)(=O)N(Cc2nc(C(=O)N(C)Cc3csc(CN4CCCC4)n3)co2)C2CC2)c(C)c1 [Ex 160, 2-({Cyclopropyl[(4-methoxy-2,6-dimethylphenyl)sulfonyl]amino}methyl)-N-methyl-N-{[2-(pyrrolidin-1-ylmethyl)-1,3-thiazol-4-yl]methyl}-1,3-oxazole-4-carboxamide]
10 to 100 | CCN1CCN(CCCNC(=O)c2coc(CN(C3CC3)S(=O)(=O)c3c(C)cc(OC)cc3C)n2)CC1 [Ex 242, 2-({Cyclopropyl[(4-methoxy-2,6-dimethylphenyl)sulfonyl]amino}methyl)-N-[3-(4-ethylpiperazin-1-yl)propyl]-1,3-oxazole-4-carboxamide trifluoroacetate]
10 to 100 | COc1cc(C)c(S(=O)(=O)N(Cc2nc(C(=O)N3CC4CCN(Cc5ccc(OC)nc5)CC4C3)co2)C2CC2)c(C)c1 (centres unmarked) [Ex 210, N-Cyclopropyl-4-methoxy-N-{[4-({5-[(6-methoxypyridin-3-yl)methyl]octahydro-2H-pyrrolo[3,4-c]pyridin-2-yl}carbonyl)-1,3-oxazol-2-yl]methyl}-2,6-dimethylbenzenesulfonamide trifluoroacetate]
100 to 1000 | COc1cc(C)c(S(=O)(=O)N(C)Cc2cc(C(=O)NCCc3ccc(Nc4nccc(N)n4)cc3)co2)c(C)c1 [Ex 44, N-(2-{4-[(4-aminopyrimidin-2-yl)amino]phenyl}ethyl)-5-({[(4-methoxy-2,6-dimethylphenyl)sulfonyl](methyl)amino}methyl)furan-3-carboxamide]
100 to 1000 | COc1cc(C)c(S(=O)(=O)N(Cc2cc(C(=O)NCc3cc(CN4CCCC4)ccc3F)co2)C2CC2)c(C)c1 [Ex 153, 5-({Cyclopropyl[(4-methoxy-2,6-dimethylphenyl)sulfonyl]amino}methyl)-N-[2-fluoro-5-(pyrrolidin-1-ylmethyl)benzyl]furan-3-carboxamide trifluoroacetate]
< 10 | COc1cc(C)c(S(=O)(=O)N(Cc2nc(C(=O)N(C)Cc3ccc(CN4CCC(NC(C)=O)C4)cc3)co2)C2CC2)c(C)c1 (centres unmarked) [Ex 185, N-(4-{[3-(Acetylamino)pyrrolidin-1-yl]methyl}benzyl)-2-({cyclopropyl[(4-methoxy-2,6-dimethylphenyl)sulfonyl]amino}methyl)-N-methyl-1,3-oxazole-4-carboxamide]
100 to 1000 | CN(Cc1cc(C(=O)NCCc2ccc(C3=NCCN3)cc2)co1)S(=O)(=O)c1c(Cl)cc(Br)cc1Cl [Ex 25, 5-({[(4-bromo-2,6-dichlorophenyl)sulfonyl](methyl)amino}methyl)-N-{2-[4-(4,5-dihydro-1H-imidazol-2-yl)phenyl]ethyl}furan-3-carboxamide]
< 10 | CN(Cc1ccc(C2=NCCN2)cc1)C(=O)c1coc(CN(C)S(=O)(=O)c2c(Cl)cccc2Cl)c1 [Ex 23, 5-({[(2,6-dichlorophenyl)sulfonyl](methyl)amino}methyl)-N-[4-(4,5-dihydro-1H-imidazol-2-yl)benzyl]-N-methylfuran-3-carboxamide]
10 to 100 | COc1cc(C)c(S(=O)(=O)N(Cc2nc(C(=O)N3CCN(Cc4ccc(C(F)(F)F)nc4)CC3)co2)C2CC2)c(C)c1 [Ex 236, N-Cyclopropyl-4-methoxy-2,6-dimethyl-N-({4-[(4-{[6-(trifluoromethyl)pyridin-3-yl]methyl}piperazin-1-yl)carbonyl]-1,3-oxazol-2-yl}methyl)benzenesulfonamide trifluoroacetate]
100 to 1000 | COc1cc(C)c(S(=O)(=O)N(Cc2cc(C(=O)N3CCN(C4CCN(C)CC4)CC3)co2)C2CC2)c(C)c1 [Ex 53, N-cyclopropyl-4-methoxy-2,6-dimethyl-N-[(4-{[4-(1-methylpiperidin-4-yl)piperazin-1-yl]carbonyl}furan-2-yl)methyl]benzenesulfonamide]
< 10 | COc1cc(C)c(S(=O)(=O)N(Cc2nc(C(=O)N3CCN(CC4CCCN(C)C4)CC3)co2)C2CC2)c(C)c1 (centres unmarked) [Ex 192, N-Cyclopropyl-4-methoxy-2,6-dimethyl-N-{[4-({4-[(1-methylpiperidin-3-yl)methyl]piperazin-1-yl}carbonyl)-1,3-oxazol-2-yl]methyl}benzenesulfonamide trifluoroacetate]
< 10 | COc1cc(C)c(S(=O)(=O)N(Cc2noc(C(=O)N3CCN(CCCN4CCCC4)CC3)n2)C2CC2)c(C)c1 [Ex 317, N-Cyclopropyl-4-methoxy-2,6-dimethyl-N-[(5-{[4-(3-pyrrolidin-1-ylpropyl)piperazin-1-yl]carbonyl}-1,2,4-oxadiazol-3-yl)methyl]benzenesulfonamide]
100 to 1000 | COc1cc(C)c(S(=O)(=O)N(Cc2cc(C(=O)N3CCN(Cc4cccnc4)CC3)co2)C2CC2)c(C)c1 [Ex 111, N-Cyclopropyl-4-methoxy-2,6-dimethyl-N-[(4-{[4-(pyridin-3-ylmethyl)piperazin-1-yl]carbonyl}furan-2-yl)methyl]benzenesulfonamide trifluoroacetate]
